In US20160286797A1, “Herbicidal Agents Containing Aclonifen” (BAYER CROPSCIENCE AKTIENGESELLSCHAFT, priority 2013, published 2016):

Legend:
[1] = system: Lolium spp. resistant to HRAC group A; assay: Greenhouse experiment, post-emergence treatment of ryegrass biotype resistant to HRAC group A; type: in vivo; settings: post-emergence (PO, BBCH 11), about 3 weeks after application
Description: (§1) In the standard design of the test, seeds of various broad-leaved weed and weed grass biotypes (origins) were sown in a 8-13 cm diameter pot filled with natural soil of a standard field soil (loamy silt; non-sterile) and covered with a covering soil layer of about 1 cm. The pots were then cultivated in a greenhouse (12-16 h light, temperature day 20-22° C., night 15-18° C.) until the time of application. The pots were treated on a laboratory track sprayer with spray liquors comprising the compositions according to the invention, mixtures of the prior art or components used individually. […]
(§2) About 3 weeks after the application, the soil action or/and foliar action was assessed visually according to a scale of 0-100% in comparison to an untreated comparative group: 0%=no noticable effect compared to the untreated comparative group; 100%=full effect compared to the untreated comparative group. […]
(§3) Insofar as herbicidal effects of the compositions according to the invention compared to mixtures of the prior art or compared to components applied individually against economically important mono- and dicotyledonous harmful plants were the center of attention, the synergistic herbicidal activities were calculated using Colby's formula (cf. S. R. Colby; Weeds 15 (1967), 20-22): […]
(§4) Δ=difference (%) of the measured value (%) to the expected value (%) (measured value minus expected value). […]

[2] = system: Lolium spp. resistant to HRAC group B; assay: Greenhouse experiment, post-emergence treatment of ryegrass biotype resistant to HRAC group B; type: in vivo; settings: post-emergence (PO, BBCH 11), about 3 weeks after application
Description: as §1, §2, §3, §4

Compound | effect (measured value, visual scale 0-100% vs untreated) ([1]; 30 g of AS/ha) | effect (measured value, visual scale 0-100% vs untreated) ([2]; 30 g of AS/ha) | effect (measured value, visual scale 0-100% vs untreated) ([1]; 225 g of AS/ha) | effect (measured value, visual scale 0-100% vs untreated) ([2]; 225 g of AS/ha)
O=C(Nc1ccc(F)cc1F)c1cccnc1Oc1cccc(C(F)(F)F)c1 [(B) diflufenican, N-(2,4-difluorophenyl)-2-[3-(trifluoromethyl)phenoxy]-3-pyridinecarboxamide] | 10% | 5% |  | 
Nc1c([N+](=O)[O-])ccc(Oc2ccccc2)c1Cl [(A) aclonifen, 2-chloro-6-nitro-3-phenoxybenzenamine] |  |  | 25% | 50%
